# Results taken from patent US20090163490A1, “Pyrrolopyrimidine Derivatives Used As HSP90 Inhibitors” (VERNALIS (R&D) LTD., priority 2006, published 2009).
# pIC50: −log10 of the molar value.
# Target: T1, human full-length HSP90 (Homo sapiens, UniProt P08238)
# T1 construct: E. coli expressed human full-length HSP90 protein, purified >95%; made in house; host or cells: E. coli
# Assay: Fluorescence polarization (FP) binding assay
# Conditions: competitive displacement of fluorescein-labelled probe from human full-length HSP90; activity range; read-out: ACTIVITY* (Activity in the FP binding assay)
# Text: Fluorescence Polarization Assay
# Fluorescence polarization {also known as fluorescence anisotropy} measures the rotation of a fluorescing species in solution, where the larger molecule the more polarized the fluorescence emission. When the fluorophore is excited with polarized light, the emitted light is also polarized. The molecular size is proportional to the polarization of the fluorescence emission.
# The fluoroscein-labelled probe—
# binds to HSP90 {full-length human, full-length yeast or N-terminal domain HSP90} and the anisotropy {rotation of the probe:protein complex} is measured.
# Test compound is added to the assay plate, left to equilibrate and the anisotropy measured again. Any change in anisotropy is due to competitive binding of compound to HSP90, thereby releasing probe.
# Stored at room temperature. • 3) BSA (bovine serum albumen) 10 mg/ml (New England Biolabs # B9001S) • 4) 20 mM probe in 100% DMSO stock concentration. Stored in the dark at RT. Working concentration is 200 nM diluted in AR water and stored at 4° C.
# • 1) Add 100 μl×buffer to wells 1A and 12A(=FP BLNK) • 2) Prepare assay mix—all reagents are kept on ice with a lid on the bucket as the probe is light-sensitive.
# • 3) Aliquot 100 μl assay mix to all other wells • 4) Seal plate and leave in dark at room temp for 20 minutes to equilibrate
# This gives 2.5 mM {50×} stock cpd−assuming cpds 20 mM. • 4) Repeat for wells A2 to A10. Control in columns 11 and 12. • 5) Transfer 5 μl from row A to row B—not column 12. Mix well. • 6) Transfer 5 μl from row B to row C. […] Add 2 μl of 100 mM standard cpd to wells B12-H12 {is positive control} • 13) The Z′ factor is calculated from zero controls and positive wells.
# T1 sequence (P08238 whole entry): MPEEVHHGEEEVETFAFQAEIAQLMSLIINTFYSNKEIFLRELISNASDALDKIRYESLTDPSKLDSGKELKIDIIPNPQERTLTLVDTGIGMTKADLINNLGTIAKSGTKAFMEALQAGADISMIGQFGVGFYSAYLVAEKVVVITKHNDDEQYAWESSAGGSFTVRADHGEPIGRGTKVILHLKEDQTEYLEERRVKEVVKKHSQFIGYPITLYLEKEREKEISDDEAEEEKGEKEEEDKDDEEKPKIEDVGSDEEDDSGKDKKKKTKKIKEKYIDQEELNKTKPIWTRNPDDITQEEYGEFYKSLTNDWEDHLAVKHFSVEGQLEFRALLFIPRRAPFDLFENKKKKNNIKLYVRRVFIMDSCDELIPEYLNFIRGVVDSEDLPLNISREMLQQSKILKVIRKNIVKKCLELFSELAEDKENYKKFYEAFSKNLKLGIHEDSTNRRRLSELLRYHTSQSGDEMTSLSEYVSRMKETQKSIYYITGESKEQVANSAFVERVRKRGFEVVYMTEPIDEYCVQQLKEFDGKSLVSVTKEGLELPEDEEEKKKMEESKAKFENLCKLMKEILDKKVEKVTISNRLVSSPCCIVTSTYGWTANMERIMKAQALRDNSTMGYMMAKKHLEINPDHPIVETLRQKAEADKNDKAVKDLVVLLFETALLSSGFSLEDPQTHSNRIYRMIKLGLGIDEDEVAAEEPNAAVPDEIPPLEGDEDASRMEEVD
row,Compound,pIC50
1,COc1cc(-c2nc(SC)nc3[nH]cc(C#N)c23)ccc1C#N [Example 55],5.00 to 6.30
2,N#Cc1c[nH]c2nc(OCCN3CCC(F)(F)CC3)nc(-c3cc(OCc4ccccc4)c(Cl)cc3Cl)c12 [Example 52],5.00 to 6.30

# Next, values leading:
row,pIC50,Compound
1,> 6.30,CCN(CC)CCOc1cc(-c2nc(SC3CCCC3)nc3[nH]cc(C#N)c23)c(Cl)cc1OC [Example 81]
2,> 6.30,COc1cc(Cl)c(-c2nc(Sc3nccs3)nc3[nH]cc(C#N)c23)cc1OC [Example 85]
3,> 6.30,CCN(CC)CCOc1cc(-c2nc(Sc3nccs3)nc3[nH]cc(C#N)c23)c(Cl)cc1OC [Example 92]
4,5.00 to 6.30,CCN(CC)CCOc1cc(-c2nc(CC(C)C)nc3[nH]cc(C#N)c23)c(Cl)cc1OC [Example 82]
5,> 6.30,COc1cc(Cl)c(-c2nc(SC(C)C)nc3[nH]cc(C#N)c23)cc1OCCN1CCC(F)(F)CC1 [Example 76]
6,> 6.30,COc1cc(Cl)c(-c2nc(SC(C)C(=O)O)nc3[nH]cc(C#N)c23)cc1OCCN1CCC(F)(F)C1 (stereo not drawn) [Example 89]
7,> 6.30,COc1cc(Cl)c(-c2nc(OCCN3CC[C@H](F)C3)nc3[nH]cc(C#N)c23)cc1OC [Example 58]
8,> 6.30,CCN(CC)CCOc1cc(-c2nc(OC3CCCC3)nc3[nH]cc(C#N)c23)c(Cl)cc1OC [Example 80]
9,> 6.30,COc1cc(Cl)c(-c2nc(SC)nc3[nH]cc(C#N)c23)cc1OCCN1CC[C@H](F)C1 [Example 73]
10,> 6.30,COc1cc(-c2nc(OCCN3CCCC(F)C3)nc3[nH]cc(C#N)c23)c(Cl)cc1C#N (stereo not drawn) [Example 63]
11,5.00 to 6.30,COc1cc(Cl)c(-c2nc(C(C)C)nc3[nH]cc(C#N)c23)cc1OC [Example 70]
12,> 6.30,CCN(CC)CCOc1cc(-c2nc(SC(C)C)nc3[nH]cc(C#N)c23)c(Cl)cc1OC [Example 68]
13,> 6.30,COc1cc(Cl)c(-c2nc(OCCN3CCOCC3)nc3[nH]cc(C#N)c23)cc1OC [Example 61]
14,> 6.30,COc1cc(Cl)c(-c2nc(SC(C)C)nc3[nH]cc(C#N)c23)cc1OCCN1CCC(F)(F)C1 [Example 75]
15,> 6.30,CCN(CC)CCCOc1nc(-c2cc(OC)c(OC)cc2Cl)c2c(C#N)c[nH]c2n1 [Example 59]
16,> 6.30,COc1cc(Cl)c(-c2nc(SC)nc3[nH]cc(C#N)c23)cc1OCCN1CCC(F)(F)C1 [Example 74]

# Same assay, conditions: competitive displacement of fluorescein-labelled probe from human full-length HSP90; activity range; read-out: activity in the fluorescence polarization assay
row,pIC50,Compound
1,< 5.00,"CSc1nc(-c2ccc(F)cc2C)c2c(C(N)=O)c[nH]c2n1 [Example 40, 4-(4-Fluoro-2-methyl-phenyl)-2-methylsulfanyl-7H-pyrrolo[2,3-d]pyrimidine-5-carboxylic Acid Amide]"
2,> 6.30,"CCN(CC)CCSc1nc(-c2cc(OC)c(OC)cc2Cl)c2c(C#N)c[nH]c2n1 [Example 30, 4-(2-Chloro-4,5-dimethoxy-phenyl)-2-(2-diethylamino-ethylsulfanyl)-7H-pyrrolo[2,3-d]pyrimidine-5-carbonitrile]"
3,> 6.30,"CSc1nc(-c2ccccc2)c2c(C#N)c[nH]c2n1 [Example 2, 2-methylsulfanyl-4-phenyl-7H-pyrrolo[2,3-d]pyrimidine-5-carbonitrile]"
4,5.00 to 6.30,CCN(CC)CCOc1cccc(-c2nc(SC)nc3[nH]cc(C#N)c23)c1 [Example 7]
5,> 6.30,"COc1ccc(-c2nc(SC)nc3[nH]cc(C#N)c23)cc1OC [Example 44, 4-(Dimethoxy-phenyl)-2-methylsulfanyl-7H-pyrrolo[2,3-d]pyrimidine-5-carbonitrile]"
6,> 6.30,"Cc1cc(F)ccc1-c1nc(SCCO)nc2[nH]cc(C#N)c12 [Example 20, 4-(4-Fluoro-2-methyl-phenyl)-2-(2-hydroxy-ethylsulfanyl)-7H-pyrrolo[2,3-d]pyrimidine-5-carbonitrile]"
7,> 6.30,"CNC(=O)CSc1nc(-c2ccc(F)cc2C)c2c(C#N)c[nH]c2n1 [Example 38, 2-[5-Cyano-4-(4-fluoro-2-methyl-phenyl)-7H-pyrrolo[2,3-d]pyrimidin-2-ylsulfanyl]-N-methyl-acetamide]"
8,> 6.30,"COc1ccc(-c2nc(OCCN3CCC(F)(F)CC3)nc3[nH]cc(C#N)c23)cc1OC [Example 32, 4-(4,5-Dimethoxy-phenyl)-2-[2-(4,4-difluoro-piperidin-1-yl)-ethoxy]-7H-pyrrolo[2,3-d]pyrimidine-5-carbonitrile]"
9,5.00 to 6.30,"COc1ccc(-c2nc(OCCN3CC[C@H](F)C3)nc3[nH]cc(C#N)c23)cc1OC [Example 34, 4-(3,4-Dimethoxy-phenyl)-2-[2-(3(S)-fluoro-pyrrolidin-1-yl)-ethoxy]-7H-pyrrolo[2,3-d]pyrimidine-5-carbonitrile]"
10,> 6.30,"Cc1cc(F)ccc1-c1nc(SCCN2CCOCC2)nc2[nH]cc(C#N)c12 [Example 21, 4-(4-Fluoro-2-methyl-phenyl)-2-(2-morpholin-4-yl-ethylsulfanyl)-7H-pyrrolo[2,3-d]pyrimidine-5-carbonitrile]"
11,5.00 to 6.30,"CSc1nc(C(=O)N2Cc3ccccc3C2)c2c(C#N)c[nH]c2n1 [Example 93, 4-(1,3-Dihydro-isoindole-2-carbonyl)-2-methylsulfanyl-7H-pyrrolo[2,3-d]pyrimidine-5-carbonitrile]"
12,< 5.00,"CSc1nc(-c2ccc3c(c2)OCCO3)c2c(C#N)c[nH]c2n1 [Example 43, 4-(2,3-Dihydro-benzo[1,4]dioxin-6-yl)-2-methylsulfanyl-7H-pyrrolo[2,3-d]pyrimidine-5-carbonitrile]"
13,5.00 to 6.30,"COc1cc(Cl)c(-c2nc(S(C)(=O)=O)nc3[nH]cc(C#N)c23)cc1OC [Example 48, 4-(2-Chloro-4,5-dimethoxy-phenyl)-2-methanesulfonyl-7H-pyrrolo[2,3-d]pyrimidine-5-carbonitrile]"
14,> 6.30,COc1cc(Cl)c(-c2nc(OCCN3CCC(F)(F)C3)nc3[nH]cc(C#N)c23)cc1OC [Example 36]
15,< 5.00,"Cc1cc(F)ccc1-c1nc(N2CCN(C)CC2)nc2[nH]cc(C#N)c12 [Example 16, 4-(4-Fluoro-2-methyl-phenyl)-2-(4-methyl-piperazin-1-yl)-7H-pyrrolo[2,3-d]pyrimidine-5-carbonitrile]"
16,5.00 to 6.30,"CSc1nc(-c2ccc(C)cc2C)c2c(Br)c[nH]c2n1 [Example 5, 5-Bromo-4-(2,4-dimethyl-phenyl)-2-methylsulfanyl-7H-pyrrolo[2,3-d]pyrimidine]"
17,> 6.30,"COc1cc(-c2nc(OCCN3CCCC3=O)nc3[nH]cc(C#N)c23)c(Cl)cc1Cl [Example 25, 4-(2,4-Dichloro-5-methoxy-phenyl)-2-[2-(2-oxo-pyrrolidin-1-yl)-ethoxy]-7H-pyrrolo[2,3-d]pyrimidine-5-carbonitrile]"
18,5.00 to 6.30,"CSc1nc(-c2ccc(C)cc2C)c2c(C)c[nH]c2n1 [Example 6, 4-(2,4-dimethyl-phenyl)-5-methyl-2-methylsulfanyl-7H-pyrrolo[2,3-d]pyrimidine]"
19,5.00 to 6.30,"COc1nc(-c2ccc(F)cc2C)c2c(C#N)c[nH]c2n1 [Example 12, 4-(4-Fluoro-2-methyl-phenyl)-2-methoxy-7H-pyrrolo[2,3-d]pyrimidine-5-carbonitrile]"
20,5.00 to 6.30,"Cc1ccc(-c2ncnc3[nH]cc(C#N)c23)c(C)c1 [Example 9, 4-(2,4-dimethyl-phenyl)-7H-pyrrolo[2,3-d]pyrimidine-5-carbonitrile]"
21,5.00 to 6.30,COc1cc(Cl)c(-c2nc([S+](C)[O-])nc3[nH]cc(C#N)c23)cc1OC (stereo not drawn) [Example 47]
22,5.00 to 6.30,"CNc1nc(-c2ccc(F)cc2C)c2c(C#N)c[nH]c2n1 [Example 17, 4-(4-Fluoro-2-methyl-phenyl)-2-methylamino-7H-pyrrolo[2,3-d]pyrimidine-5-carbonitrile]"
23,5.00 to 6.30,"CSc1nc(-c2ccc(C)cc2C)c2c(C(F)(F)F)c[nH]c2n1 [Example 10, 4-(2,4-Dimethyl-phenyl)-2-methylsulfanyl-5-trifluoromethyl-7H-pyrrolo[2,3-d]pyrimidine]"
24,> 6.30,"CCN(CC)CCSc1nc(-c2cc(OC)c(C#N)cc2Cl)c2c(C#N)c[nH]c2n1 [Example 37, 4-(2-Chloro-4-cyano-5-methoxy-phenyl)-2-(2-diethylamino-ethylsulfanyl)-7H-pyrrolo[2,3-d]pyrimidine-5-carbonitrile]"
